Results as given in patent US20090093509A1, “Methods and Compositions for the Treatment of Pruritus” (priority 2007, published 2009).
Counter-ions that a name gives are not always drawn.

Test: pH of aqueous solution
Type: physicochemical
Experimental: The pH of the formulations of the invention are greater than 3 and less than 7. For example, the pH can be 3-7, 3-6, 4-7, 4-6, or 4-5. The pH of the solution and the measured pH of the topical composition may not be the same. For the purposes of this specification, either pH may be relevant but it is preferred that the pH is defined as that in the aqueous phase and not in the final cream. The pH of a 0.1% w/v aqueous solution of nalmefene hydrochloride is 6.13 at 22.5° C.: the corresponding values for 1% and 5% solutions are 5.76 and 4.66.

## C=C1CC[C@@]2(O)[C@H]3Cc4ccc(O)c5c4[C@@]2(CCN3CC2CC2)[C@H]1O5 [nalmefene hydrochloride, 6-methylene-6-desoxy-N-cyclopropylmethyl-14-hydroxydihydronormorphine]
0.1% w/v aqueous solution, 22.5° C.
  pH of aqueous solution: 6.13
1% solution
  pH of aqueous solution: 5.76
5% solution
  pH of aqueous solution: 4.66
